# Assay results taken from patent US20100151104A1, “Preservative System For Beverages Based On Combinations Of Trans-Cinnamic Acid, Lauric Arginate, And Dimethyl Dicarbonate” (priority 2008, published 2010).
# Experiments:
# Assay type in all cases: cell-based
# Zygosaccharomyces bailii = assay: Growth in 10% apple juice beverage with combinations of LAE & cinnamic acid; log (QA/Qa+QB/Qb) calculation; conditions: for amount of growth (normalized) to control: Cinnamic Acid 0 ppm
# Description: (§1) Trans-cinnamic acid and lauric arginate were combined in the following beverage formulation: [table] […] The analysis of the interaction between lauric arginate and cinnamic acid can be refined through use of a mathematical method developed by Voorspuij and Nass (Arch. Int. pharmacodyn. 59:211 1957) (generally accepted among those practiced in the art.) Herein, the interactions between two active substances can be explored. First the quantity (Qa=Molar Cone) of compound A required for an end point (concentration required to stabilize product for 16 weeks) is established. Similarly, the quantity (Qb =Molar cone) of substance B required to establish the same endpoint is established. Thereafter, mixtures of A & B, in quantities QA & Qs are established that also define endpoints. […] If the sum of the ratios for a mixture of A & Bare=1, then the interaction is considered additive. […] Calculation of log (QA/Qa+QB/Qb) for LAE+trans Cinnamic Acid vs Zygosaccharomyces bailii
# Brettanomyces nardensis = assay: as above; conditions: for amount of growth (normalized) to control: Cinnamic Acid 0 ppm
# Description: as §1, with “Brettanomyces […]” for “Zygosaccharomyces bailii”
# [1] = system: seven bio-indicator strains (Zygosaccharomyce baili, Brettanomyces species, Saccharomyces cerevisiae, Paecilomyces lilacinus, Zygosaccharomyces bisporus …); assay: Example 2: growth/no growth of seven bio-indicator strains in 4% apple juice beverage, 16 weeks; conditions: FIGS. 1a, 1b; stand alone; pH 3.4; 16 weeks at 25° C.
# Description: A single preparation of base beverage was employed to prepare each of five tests and consisted of 4% apple juice, 68 g sucrose/L, 52 g glucose/L, 2 g fructose/L prepared in batch water that was formulated to 90 ppm hardness with calcium chloride and magnesium chloride. […] The total combined quantity of sodium malate and malic acid was near constant, but the ratio of malic acid and malate varied slightly given the presence or absence of lauric arginate or cinnamic acid. Where required, lauric arginate or cinnamic acid was supplemented from separately prepared stock solutions. Each of the five tests employed the same bio-indicator organisms; Growth (+) versus no growth (-) established by visual inspection or spectrophotometrically. […] Y3, Zygosaccharomyce baili, Pepsi isolate 906; C-7UP, Brettanomyces species, Pepsi Isolate; Spore, an ascospore preparation of Saccharomyces cerevisiae 99 a Pepsi Isolate; […], Zygosaccharomyces baili, ATCC 60484; Spores, M7, Paecilomyces lilacinus ATCC 90461; […], Zygosaccharomyces bisporus ATCC 52407; Spores, M4, Talaromvces flavus var. flavus ATCC 10512. Samples were incubated for period of 16 weeks at 25° C. in vessels protective against evaporation.
# Saccharomyces cerevsiae = assay: Growth in 10% apple juice beverage with combinations of LAE & cinnamic acid; log (QA/Qa+QB/Qb) calculation; conditions: for amount of growth (normalized) to control: Cinnamic Acid 0 ppm
# Description: as §1, with “[table] • Values reflect amount of growth (normalized) to control (0 ppm LAE & 0 ppm Cinnamic acid) for each pH tested.” for “[table]”, “Saccharomyces […]” for “Zygosaccharomyces bailii”
# [2] = stand alone, end point = concentration required to stabilize product for 16 weeks
smiles,measurement,setting,value
"CCCCCCCCCCCC(=O)N[C@@H](CCCNC(=N)N)C(=O)OCC.Cl [LAE, ethyl-N-lauroyl-L-argniate hydrochloride]",QA/Qa + QB/Qb,"Zygosaccharomyces bailii; QLAE 76, QCA 0",1.00
same,QLAE/QLAE*,"Zygosaccharomyces bailii; QLAE 76, QCA 0",1.00
same,QNaB/QNAB*,"Zygosaccharomyces bailii; QLAE 76, QCA 0",0.00
same,log (QA/Qa + QB/Qb),"Zygosaccharomyces bailii; QLAE 76, QCA 0",0.0000
same,amount of growth (normalized) to control,"Zygosaccharomyces bailii; pH 3.0, LAE 2.5 ppm",81%
same,amount of growth (normalized) to control,"Zygosaccharomyces bailii; pH 3.0, LAE 5 ppm",88%
same,amount of growth (normalized) to control,"Zygosaccharomyces bailii; pH 3.0, LAE 7.5 ppm",82%
same,amount of growth (normalized) to control,"Zygosaccharomyces bailii; pH 3.0, LAE 10 ppm",79%
same,amount of growth (normalized) to control,"Zygosaccharomyces bailii; pH 3.0, LAE 15 ppm",75%
same,amount of growth (normalized) to control,"Zygosaccharomyces bailii; pH 3.5, LAE 2.5 ppm",95%
same,amount of growth (normalized) to control,"Zygosaccharomyces bailii; pH 3.5, LAE 5 ppm",75%
same,amount of growth (normalized) to control,"Zygosaccharomyces bailii; pH 3.5, LAE 7.5 ppm",75%
same,amount of growth (normalized) to control,"Zygosaccharomyces bailii; pH 3.5, LAE 10 ppm",78%
same,amount of growth (normalized) to control,"Zygosaccharomyces bailii; pH 3.5, LAE 15 ppm",86%
same,amount of growth (normalized) to control,"Zygosaccharomyces bailii; pH 4.0, LAE 2.5 ppm",94%
same,amount of growth (normalized) to control,"Zygosaccharomyces bailii; pH 4.0, LAE 5 ppm",80%
same,amount of growth (normalized) to control,"Zygosaccharomyces bailii; pH 4.0, LAE 7.5 ppm",85%
same,amount of growth (normalized) to control,"Zygosaccharomyces bailii; pH 4.0, LAE 10 ppm",114%
same,amount of growth (normalized) to control,"Zygosaccharomyces bailii; pH 4.0, LAE 15 ppm",124%
same,QLAE* (quantity of LAE alone required for the end point),Zygosaccharomyces bailii; [2],QLAE* 76
same,QA/Qa + QB/Qb,"Brettanomyces nardensis; QLAE 15, QCA 0",1.00
same,QLAE/QLAE*,"Brettanomyces nardensis; QLAE 15, QCA 0",1.00
same,QNaB/QNAB*,"Brettanomyces nardensis; QLAE 15, QCA 0",0.00
same,log (QA/Qa + QB/Qb),"Brettanomyces nardensis; QLAE 15, QCA 0",0.0000
same,amount of growth (normalized) to control,"Brettanomyces nardensis; pH 3.0, LAE 2.5 ppm",89%
same,amount of growth (normalized) to control,"Brettanomyces nardensis; pH 3.0, LAE 5 ppm",116%
same,amount of growth (normalized) to control,"Brettanomyces nardensis; pH 3.0, LAE 7.5 ppm",90%
same,amount of growth (normalized) to control,"Brettanomyces nardensis; pH 3.0, LAE 10 ppm",99%
same,amount of growth (normalized) to control,"Brettanomyces nardensis; pH 3.0, LAE 15 ppm",0%
same,amount of growth (normalized) to control,"Brettanomyces nardensis; pH 3.5, LAE 2.5 ppm",112%
same,amount of growth (normalized) to control,"Brettanomyces nardensis; pH 3.5, LAE 5 ppm",86%
same,amount of growth (normalized) to control,"Brettanomyces nardensis; pH 3.5, LAE 7.5 ppm",81%
same,amount of growth (normalized) to control,"Brettanomyces nardensis; pH 3.5, LAE 10 ppm",57%
same,amount of growth (normalized) to control,"Brettanomyces nardensis; pH 3.5, LAE 15 ppm",0%
same,amount of growth (normalized) to control,"Brettanomyces nardensis; pH 4.0, LAE 2.5 ppm",109%
same,amount of growth (normalized) to control,"Brettanomyces nardensis; pH 4.0, LAE 5 ppm",104%
same,amount of growth (normalized) to control,"Brettanomyces nardensis; pH 4.0, LAE 7.5 ppm",97%
same,amount of growth (normalized) to control,"Brettanomyces nardensis; pH 4.0, LAE 10 ppm",0%
same,amount of growth (normalized) to control,"Brettanomyces nardensis; pH 4.0, LAE 15 ppm",0%
same,QLAE* (quantity of LAE alone required for the end point),Brettanomyces nardensis; [2],QLAE* 15
same,concentration required to inhibit all seven bio-indicator strains,[1],0.16 mM
same,QA/Qa + QB/Qb,"Saccharomyces cerevsiae; QLAE 32, QCA 0",1.00
same,QLAE/QLAE*,"Saccharomyces cerevsiae; QLAE 32, QCA 0",1.00
same,QNaB/QNAB*,"Saccharomyces cerevsiae; QLAE 32, QCA 0",0.00
same,log (QA/Qa + QB/Qb),"Saccharomyces cerevsiae; QLAE 32, QCA 0",0.0000
same,amount of growth (normalized) to control,"Saccharomyces cerevsiae; pH 3.0, LAE 2.5 ppm",97%
same,amount of growth (normalized) to control,"Saccharomyces cerevsiae; pH 3.0, LAE 5 ppm",97%
same,amount of growth (normalized) to control,"Saccharomyces cerevsiae; pH 3.0, LAE 7.5 ppm",86%
same,amount of growth (normalized) to control,"Saccharomyces cerevsiae; pH 3.0, LAE 10 ppm",94%
same,amount of growth (normalized) to control,"Saccharomyces cerevsiae; pH 3.0, LAE 15 ppm",42%
same,amount of growth (normalized) to control,"Saccharomyces cerevsiae; pH 3.5, LAE 2.5 ppm",103%
same,amount of growth (normalized) to control,"Saccharomyces cerevsiae; pH 3.5, LAE 5 ppm",104%
same,amount of growth (normalized) to control,"Saccharomyces cerevsiae; pH 3.5, LAE 7.5 ppm",93%
same,amount of growth (normalized) to control,"Saccharomyces cerevsiae; pH 3.5, LAE 10 ppm",105%
same,amount of growth (normalized) to control,"Saccharomyces cerevsiae; pH 3.5, LAE 15 ppm",57%
same,amount of growth (normalized) to control,"Saccharomyces cerevsiae; pH 4.0, LAE 2.5 ppm",101%
same,amount of growth (normalized) to control,"Saccharomyces cerevsiae; pH 4.0, LAE 5 ppm",96%
same,amount of growth (normalized) to control,"Saccharomyces cerevsiae; pH 4.0, LAE 7.5 ppm",91%
same,amount of growth (normalized) to control,"Saccharomyces cerevsiae; pH 4.0, LAE 10 ppm",90%
same,amount of growth (normalized) to control,"Saccharomyces cerevsiae; pH 4.0, LAE 15 ppm",79%
same,QLAE* (quantity of LAE alone required for the end point),Saccharomyces cerevsiae; [2],QLAE* 32
